Laboratory results: patent publication US5665760A, “Lyophilized thioxanthenone antitumor agents” (priority 1995, dated 1997)

Tests used:
Assay type in all cases: in vivo
[1] = test system: pancreatic ductal adenocarcinoma #03; assay: antitumor activity in mice against pancreatic ductal adenocarcinoma #03 (Panc 03); details: for Weight Loss / Drug Deaths: Table 1, total doses as in E1; for Weight Loss: average body weight 25 g
Description: (§1) Representative examples of the invention were tested for antitumor activity in mice according to the following procedure:
(§2) The animals were pooled, implanted subcutaneously with 30 to 60 mg tumor fragments by 12-gauge trocar, and again pooled before unselective distribution to the various treatment and control groups. For early-stage treatment, chemotherapy was started within 1 to 5 days after tumor implantation while the number of cells was relatively small (10^7 to 10^8 cells). For advanced-stage treatment, chemotherapy was delayed until the tumor became relatively large (200 to 300 mg in size). A 300-mg tumor contains approximately 3×10^8 total cells. […] Tumors were measured with a caliper weekly (or twice weekly for the more rapidly growing tumors). Mice were sacrificed when their tumors reached 1500 mg (i.e., before they can cause the animal discomfort). Tumor weights were estimated from two-dimensional measurements.
(§3) The treatment and control groups were measured when the control group tumors reached approximately 700 to 1200 mg in size (Median of Group). The median tumor weight of each group was determined (including zeros). […] A T/C value <10% is considered to indicate highly significant antitumor activity.
(§4) The results are shown in Table I for pancreatic ductal adenocarcinoma #03 and in Table 2 for colon adenocarcinoma #38.

[2] = test system: colon adenocarcinoma #38; assay: antitumor activity in mice against colon adenocarcinoma #38
Description: as §1, §2, §3, §4

[3] = test system: Human Adeno Squamous Lung #125; assay: antitumor activity in mice against Human Adeno Squamous Lung #125; details: 16 hr infusion days 7, 20
[4] = test system: Mammary 16/C; assay: antitumor activity in mice against Mammary 16/C
Description: as §1, §2, §3

[5] = test system: Mammary 16/C/Adr; assay: antitumor activity in mice against Mammary 16/C/Adr (adriamycin resistant); details: 960 mg/kg total, 3 hr infusion days 1, 4
Description: as §1
(§5) The animals were pooled, implanted subcutaneously with 30 to 60 mg tumor fragments by 12-gauge trocar, and again pooled before unselective distribution to the various treatment and control groups. For early-stage treatment, chemotherapy was started within 1 to 5 days after tumor implantation while the number of cells was relatively small (10^7 to 10^8 cells). For advanced-stage treatment, chemotherapy was delayed until the tumor became relatively large (200 to 300 mg in size). A 300-mg tumor contains approximately 3×10^8 total cells. Tumors within a given advanced-stage trial were within a 2.5-fold size range for 90% of the animals. Tumors were measured with a caliper weekly (or twice weekly for the more rapidly growing tumors). Mice were sacrificed when their tumors reached 1500 mg (i.e., before they can cause the animal discomfort). Tumor weights were estimated from two-dimensional measurements.
(§6) The treatment and control groups were measured when the control group tumors reached approximately 700 to 1200 mg in size (Median of Group). The median tumor weight of each group was determined (including zeros). The T/C value (weight of treated tumors over the weight of control tumors) in percent is an indication of antitumor effectiveness: A T/C equal to or less than 42% is considered significant antitumor activity by the Drug Evaluation Branch of the Division of Cancer Treatment (NCl). A T/C value <10% is considered to indicate highly significant antitumor activity. A body weight loss nadir (mean of group) of greater than 20% or greater than 20% drug-deaths is considered to indicate an excessively toxic dosage.

[6] = test system: Colon #51; assay: antitumor activity in mice against Colon #51; details: 3 hr infusion days 3, 7; for Tumor Free: 50 days of observation
Description: as §1, §5, §6

[7] = test system: Colon 51/A; assay: antitumor activity in mice against Colon 51/A; details: i.v. bolus days 3-6, 9, 11
Description: as §1, §2, §3

[8] = test system: Panc 02; assay: antitumor activity in mice against Panc 02; details: i.v. bolus days 1-4; for Tumor Free: 28 days of observation
Description: as §1, §5, §6

[9] = 600 mg/kg total, 4 hr infusion days 6, 13
[10] = 960 mg/kg total, 4 hr infusion days 6, 13
[11] = Table 2, i.v., total dose mg/kg by Example: 2:600, 5:960, 6:132, 7:840, 16(a):1000, 18(e):180
[12] = 454 mg/kg total, 4 hr infusion days 1, 4
[13] = 720 mg/kg total, 4 hr infusion days 1, 4
[14] = 79 mg/kg total, i.v. bolus days 3-4, 6-14
[15] = 124 mg/kg total, i.v. bolus days 3-4, 6-14
[16] = 51 mg/kg total, i.v. bolus days 6-9
[17] = 82 mg/kg total, i.v. bolus days 6-9
[18] = Table 2, i.v., total dose mg/kg by Example: 6:82, 16(a):690, 18(e):120
[19] = 51 mg/kg total, i.v. bolus days 1-4
[20] = 82 mg/kg total, i.v. bolus days 1-4

SMILES: CCN(CC)CCNc1ccc(CNC)c2sc3ccccc3c(=O)c12 [Example 5, 1-[[2-(Diethylamino)ethyl]amino]-4-[(methylamino)-methyl]thioxanthen-9-one]
- T/C [1]: 0%
- T/C Value ([1]; 222 mg/kg total, 3 hr infusion): 0%
- Wt. Loss at Nadir ([1]; 222 mg/kg total, 3 hr infusion): -1.6 g/mouse
- Tumor Free ([1]; 222 mg/kg total, 3 hr infusion, 108 days of observation): 1/4
- Weight Loss [1]: 1.6 g
- Drug Deaths [1]: 0
- activity against colon adenocarcinoma #38 ([2]; 300 mg/kg p.o.): active
- T/C Value ([2]; 477 mg/kg total, 3-15 bolus): 9%
- Wt. Loss at Nadir ([2]; 477 mg/kg total, 3-15 bolus): -2.8 g/mouse
- Tumor Free ([2]; 477 mg/kg total, 3-15 bolus, 100 days of observation): 0/5
- T/C Value [2, 9]: 26%
- Wt. Loss at Nadir [2, 9]: -2.0 g/mouse
- Tumor Free ([2]; 600 mg/kg total, 4 hr infusion days 6, 13, 20 days of observation): 0/7
- Tumor Free ([2]; 600 mg/kg total, 4 hr infusion days 6, 13, 100 days of observation): 0/7
- T/C Value ([2]; 732 mg/kg total, 3-15 bolus): 0%
- Wt. Loss at Nadir ([2]; 732 mg/kg total, 3-15 bolus): -2.0 g/mouse
- Tumor Free ([2]; 732 mg/kg total, 3-15 bolus, 100 days of observation): 1/5
- T/C Value [2, 10]: 11%
- Wt. Loss at Nadir [2, 10]: -2.9 g/mouse
- Tumor Free ([2]; 960 mg/kg total, 4 hr infusion days 6, 13, 20 days of observation): 2/7
- Tumor Free ([2]; 960 mg/kg total, 4 hr infusion days 6, 13, 100 days of observation): 1/7
- Drug Deaths [2, 11]: 0
- T/C ([2]; iv): 11%
- Weight Loss ([2]; mouse, in vivo, iv): 2.9 g
- T/C Value ([3]; 600 mg/kg total): 15%
- Wt. Loss at Nadir ([3]; 600 mg/kg total): -0.4 g/mouse
- Tumor Free ([3]; 600 mg/kg total, 33 days of observation): 0/5
- Tumor Free ([3]; 600 mg/kg total, 132 days of observation): 0/5
- T/C Value ([3]; 960 mg/kg total): 16%
- Wt. Loss at Nadir ([3]; 960 mg/kg total): -0.4 g/mouse
- Tumor Free ([3]; 960 mg/kg total, 33 days of observation): 1/4
- Tumor Free ([3]; 960 mg/kg total, 132 days of observation): 0/4
- T/C Value [4, 12]: 16%
- Wt. Loss at Nadir [4, 12]: -1.2 g/mouse
- Tumor Free ([4]; 454 mg/kg total, 4 hr infusion days 1, 4, 13 days of observation): 0/7
- T/C Value [4, 13]: 18%
- Wt. Loss at Nadir [4, 13]: -2.0 g/mouse
- Tumor Free ([4]; 720 mg/kg total, 4 hr infusion days 1, 4, 13 days of observation): 0/7
- T/C Value [5]: 23%
- Wt. Loss at Nadir [5]: -2.8 g/mouse
- T/C Value ([6]; 454 mg/kg total): 12%
- Wt. Loss at Nadir ([6]; 454 mg/kg total): -2.8 g/mouse
- Tumor Free ([6]; 454 mg/kg total): 0/7
- T/C Value ([6]; 720 mg/kg total): 8%
- Wt. Loss at Nadir ([6]; 720 mg/kg total): -1.1 g/mouse
- Tumor Free ([6]; 720 mg/kg total): 0/5

SMILES: CCN(CC)CCNc1ccc(CNS(C)(=O)=O)c2sc3ccccc3c(=O)c12 [Example 6, N-[[1-[[2-(Diethylamino)ethyl]amino]-9-oxothioxanthen4-yl]methyl]methanesulfonamide]
- T/C Value [1, 14]: 0%
- Wt. Loss at Nadir [1, 14]: -1.0 g/mouse
- Tumor Free ([1]; 79 mg/kg total, i.v. bolus days 3-4, 6-14, 245 days of observation): 1/5
- T/C Value [1, 15]: 0%
- Wt. Loss at Nadir [1, 15]: -1.6 g/mouse
- Tumor Free ([1]; 124 mg/kg total, i.v. bolus days 3-4, 6-14, 245 days of observation): 3/5
- Weight Loss [1]: 1.6 g
- Drug Deaths [1]: 0
- T/C Value [2, 16]: 18%
- Wt. Loss at Nadir [2, 16]: -1.2 g/mouse
- T/C Value [2, 17]: 1%
- Wt. Loss at Nadir [2, 17]: -1.7 g/mouse
- Drug Deaths [2, 11]: 3/7
- Drug Deaths [2, 18]: 1/7
- Weight Loss [2, 18]: 1.7 g
- Weight Loss ([2]; mouse, in vivo, iv): 5.0 g
- T/C Value [4, 19]: 13%
- Wt. Loss at Nadir [4, 19]: -1.2 g/mouse
- Tumor Free ([4]; 51 mg/kg total, i.v. bolus days 1-4, 23 days of observation): 0/5
- T/C Value [4, 20]: 6%
- Wt. Loss at Nadir [4, 20]: -3.0 g/mouse
- Tumor Free ([4]; 82 mg/kg total, i.v. bolus days 1-4, 23 days of observation): 0/5
- T/C Value ([7]; 66 mg/kg total): 28%
- Wt. Loss at Nadir ([7]; 66 mg/kg total): -2.3 g/mouse
- T/C Value ([7]; 96 mg/kg total): 14%
- Wt. Loss at Nadir ([7]; 96 mg/kg total): -3.0 g/mouse
- T/C Value ([8]; 51 mg/kg total): 42%
- Wt. Loss at Nadir ([8]; 51 mg/kg total): -1.2 g/mouse
- Tumor Free ([8]; 51 mg/kg total): 0/5
- T/C Value ([8]; 82 mg/kg total): 23%
- Wt. Loss at Nadir ([8]; 82 mg/kg total): -2.0 g/mouse
- Tumor Free ([8]; 82 mg/kg total): 0/5
